Results reported in patent publication US9913901B2, “Combination therapy for treating HER2-positive cancers” (Merrimack Pharmaceuticals, Inc., priority 2012, dated 2018).

Test system: human cardiomyocytes

COc1cccc2c1C(=O)c1c(O)c3c(c(O)c1C2=O)C[C@@](O)(C(=O)CO)C[C@@H]3O[C@H]1C[C@H](N)[C@H](O)[C@H](C)O1 [free doxorubicin, (8S,10S)-10-(4-amino-5 hydroxy-6-methyl-tetrahydro-2H-pyran-2-yloxy)-6,8,11-trihydroxy-8-(2-hydroxyacetyl)-1-methoxy-7,8,9,10-tetrahydrotetracene-5,12-dione]
level of uptake into human cardiomyocytes: relatively much higher compared to both MM-302 and untargeted pegylated liposomal doxorubicin
